{
  "source": "patent US6906046B2",
  "about": "(Celltech R & D Inc., priority 2000, dated 2005)",
  "key": {"A549 cells": {"system": "A549 cells", "test": "Inhibition of TNF-α induced apoptosis in A549 cells (crystal violet)", "format": "cell-based", "conditions": "Homo sapiens, percent inhibition at 20 μM or IC50 in μM", "procedure": "The protocol used for determining inhibition of apoptosis in A549 cells was adopted from a system previously described (K. Last-Barney et al., J. of Immunology 141:527-530, 1988). Briefly, 10^5 cells in 200 μL 10% FBS/RPMI antibiotic containing culture medium were plated into 96 well round bottom culture plates and allowed to adhere for 6 hours at 37° C. in a 5% CO2 atmosphere. The media was removed and 100 μL of RPMI+1 μg/mL actinomycin-D was added to each well, followed by 90 μL of test compound solution in 1% DMSO. This was incubated for 1 hour 10 AL TNF-α was added at its EC50 (normally 1 ng/mL FAC) and the plates incubated for 18 hours. The media was aspirated from the plates and 100 μL of 0.5% crystal violet in 20% methanol was added. After 10 minutes the plates were rinsed with water to remove excess stain, air dried, and read on a Spectramax at a wavelength of 590 nm. The data obtained from the Spectramax was converted into percent inhibition data at a concentration of 20 μM or IC50 measured in μM."}, "NFκB": {"system": "NFκB", "test": "NFκB luciferase reporter assay in TNF-α stimulated A549 cells (E-selectin promoter)", "format": "cell-based", "conditions": "% inhibition or IC50 in μM; for IC50: Homo sapiens", "procedure": "A549 cells were stably transfected with an E-selectin promoter containing three NFκB binding sites driving luciferase expression. For the assay, 5×10^4 cells were incubated in 96 well round bottom plates overnight in 100 μL of 10% FBS/RPMI medium at 37° C. in a 5% CO2 atmosphere. The following morning the medium was removed and 90 μL of a 1% DMSO solution of test compound solution was added and the plates incubated for 1 hour. 10 μL of TNF-α was added at its EC50 (normally 6 ng/mL FAC) to each well and the plate incubated for 5 hours. 100 μL of luciferase buffer was added, and after 10 minutes luminescence was read on a Wallac Victor 1420 Multilabel Counter. The data obtained from the Wallac Victor was converted into % inhibition data or IC50 measured in μM."}, "CXCR2": {"target": "T1, CXCR2 (Homo sapiens, UniProt P25025)", "T1 construct": "host or cells: CHO cells", "T1 sequence (P25025 1-360)": "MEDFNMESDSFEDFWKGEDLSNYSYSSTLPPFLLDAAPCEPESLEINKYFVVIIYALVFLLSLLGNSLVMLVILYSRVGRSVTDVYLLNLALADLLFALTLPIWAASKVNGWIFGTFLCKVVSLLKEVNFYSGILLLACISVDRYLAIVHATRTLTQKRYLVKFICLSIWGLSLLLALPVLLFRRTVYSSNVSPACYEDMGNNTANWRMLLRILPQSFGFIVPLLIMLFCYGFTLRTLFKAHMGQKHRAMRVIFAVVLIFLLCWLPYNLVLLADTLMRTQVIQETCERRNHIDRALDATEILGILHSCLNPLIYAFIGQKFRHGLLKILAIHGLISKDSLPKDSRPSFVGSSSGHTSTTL", "test": "CXCR2 radioligand binding assay with 125I labeled IL-8", "conditions": "human recombinant CHO cells; for IC50: percent inhibition or IC50, read-out: CXCR2 2 inh.; for CXCR2 2 inh.: percent inhibition or IC50", "excerpt": "(§1) This assay is a radioligand binding assay in human recombinant CHO cells with ^125I labeled IL-8 as the ligand. The assay procedure is described in Ahuja, S. K.; Murphy, P. M;."}, "CXCR1": {"target": "T2, CXCR1 (Homo sapiens, UniProt P25024)", "T2 construct": "host or cells: CHO cells", "T2 sequence (P25024 1-350)": "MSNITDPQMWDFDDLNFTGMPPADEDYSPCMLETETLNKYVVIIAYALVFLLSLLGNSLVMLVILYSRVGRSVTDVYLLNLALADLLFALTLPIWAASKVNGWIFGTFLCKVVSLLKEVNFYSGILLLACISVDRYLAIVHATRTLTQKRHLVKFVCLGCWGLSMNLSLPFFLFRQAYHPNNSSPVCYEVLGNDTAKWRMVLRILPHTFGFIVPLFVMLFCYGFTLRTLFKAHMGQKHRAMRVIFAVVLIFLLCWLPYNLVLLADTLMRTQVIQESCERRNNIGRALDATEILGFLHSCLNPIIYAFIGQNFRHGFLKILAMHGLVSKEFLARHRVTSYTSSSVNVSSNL", "test": "CXCR1 radioligand binding assay with 125I labeled IL-8", "conditions": "human recombinant CHO cells; for IC50: percent inhibition or IC50, read-out: CXCR1 inh.; for CXCR1 inh.: percent inhibition or IC50", "excerpt": "as §1"}, "[1]": {"conditions": "inhibition of TNF-α induced apoptosis in A549 cells, given as class symbols, read-out: Apopt inh"}, "[2]": {"conditions": "TNF-α stimulated A549 cells, E-selectin promoter luciferase, given as class symbols, read-out: NFκB inh"}, "[3]": {"conditions": "A549 cells, actinomycin-D + TNF-α at its EC50, 18 hours, read-out: Apopt. Inh."}, "[4]": {"conditions": "A549 cells with NFκB luciferase reporter, TNF-α at its EC50, 5 hours, read-out: NFkB inh."}, "[5]": {"conditions": "A549 cells with NFκB luciferase reporter, TNF-α at its EC50, 5 hours"}},
  "note": "Read-outs that look alike come from different tables or passages of the source.",
  "data": [
    {"smiles": "CCCOC(=O)[C@H]1[C@H](C(=O)OCC[Si](C)(C)C)C2C/C(=N\\OCc3nnsc3Cl)[C@H]1c1cc(O)ccc12", "note": "(racemic) [Example 71, 11-(5-Chloro-[1,2,3]thiadiazol-4-ylmethoxyimino)-4-hydroxy-tricyclo[6.2.2.0^2,7]dodeca-2(7),3,5-triene-9,10-dicarboxylic acid 10-propyl ester 9-(2-trimethylsilanyl-ethyl) ester]", "values": [
      {"measurement": "IC50", "setting": "A549 cells; [1]", "result": "< 10", "unit": "µM"},
      {"measurement": "IC50", "setting": "NFκB; [2]", "result": "10 to 50", "unit": "µM"}
    ]},
    {"smiles": "CCCOC(=O)[C@H]1[C@H](C(=O)OCC[Si](C)(C)C)C2CC(=O)[C@H]1c1ccccc12", "note": "[Example 52]", "values": [
      {"measurement": "inhibition at 20 µM", "setting": "A549 cells; [1]", "result": "6 to 64", "unit": "%"},
      {"measurement": "IC50", "setting": "NFκB; [2]", "result": "10 to 50", "unit": "µM"}
    ]},
    {"smiles": "CCCOC(=O)[C@H]1[C@H](C(=O)OCC[Si](C)(C)C)C2CC(O)[C@H]1c1cc(O)ccc12", "note": "(stereo partly drawn) [Example 82]", "values": [
      {"measurement": "IC50", "setting": "A549 cells; [1]", "result": "< 10", "unit": "µM"},
      {"measurement": "IC50", "setting": "NFκB; [2]", "result": "10 to 50", "unit": "µM"}
    ]},
    {"smiles": "CCCOC(=O)[C@H]1[C@H](C(=O)OCC[Si](C)(C)C)C2CC(NCc3ccc(C)cc3)[C@H]1c1cc(O)ccc12", "note": "(stereo partly drawn) [Example 84]", "values": [
      {"measurement": "IC50", "setting": "A549 cells; [1]", "result": "< 10", "unit": "µM"},
      {"measurement": "IC50", "setting": "NFκB; [2]", "result": "10 to 50", "unit": "µM"}
    ]},
    {"smiles": "CCCOC(=O)[C@H]1[C@H](C(=O)OCC[Si](C)(C)C)C2CC3(OCCO3)[C@H]1c1cc(O)ccc12", "note": "[Example 97]", "values": [
      {"measurement": "inhibition at 20 µM", "setting": "A549 cells; [1]", "result": "6 to 64", "unit": "%"},
      {"measurement": "IC50", "setting": "NFκB; [2]", "result": "10 to 50", "unit": "µM"}
    ]},
    {"smiles": "C=CCOC(=O)c1ccc(COc2ccc3c(c2)[C@@H]2C(=O)CC3[C@@H](C(=O)N(C)CC(=O)NCc3c(OC)cc(OC)cc3OC)[C@H]2C(=O)OCC[Si](C)(C)C)cc1", "note": "[Example 110]", "values": [
      {"measurement": "inhibition at 20 µM", "setting": "A549 cells; [1]", "result": "6 to 64", "unit": "%"}
    ]},
    {"smiles": "CCCOC(=O)C1C(C(=O)OCC[Si](C)(C)C)C2C/C(=N\\Nc3ccccc3)[C@H]1c1cc(O)ccc12", "note": "(stereo partly drawn) [Example 111]", "values": [
      {"measurement": "IC50", "setting": "CXCR2", "result": "< 10", "unit": "µM"},
      {"measurement": "IC50", "setting": "A549 cells; [3]", "result": "< 10", "unit": "µM"},
      {"measurement": "IC50", "setting": "CXCR1", "result": "< 10", "unit": "µM"},
      {"measurement": "IC50", "setting": "NFκB; [4]", "result": "10 to 50", "unit": "µM"}
    ]},
    {"smiles": "CCCOC(=O)C1C(C(=O)OCC[Si](C)(C)C)C2C/C(=N\\Nc3ccccc3Br)[C@H]1c1cc(O)ccc12", "note": "(stereo partly drawn) [Example 112]", "values": [
      {"measurement": "IC50", "setting": "CXCR2", "result": "< 10", "unit": "µM"},
      {"measurement": "IC50", "setting": "CXCR1", "result": "10 to 50", "unit": "µM"},
      {"measurement": "NFkB inh.", "setting": "NFκB; [5]", "result": "* (refers to percent inhibition from 6% to 64%)"}
    ]},
    {"smiles": "C[Si](C)(C)CCOC(=O)C1C2CC(=O)[C@@H](c3cc(O)ccc32)C1C(=O)OCC[Si](C)(C)C", "note": "(stereo partly drawn) [Example 113]", "values": [
      {"measurement": "IC50", "setting": "CXCR2", "result": "10 to 50", "unit": "µM"},
      {"measurement": "IC50", "setting": "CXCR1", "result": "10 to 50", "unit": "µM"},
      {"measurement": "NFkB inh.", "setting": "NFκB; [5]", "result": "* (refers to percent inhibition from 6% to 64%)"}
    ]},
    {"smiles": "CCCOC(=O)C1C(C(=O)OCC[Si](C)(C)C)C2C[C@H](Nc3ccccc3)[C@H]1c1cc(O)ccc12", "note": "(stereo partly drawn) [Example 114]", "values": [
      {"measurement": "CXCR2 2 inh.", "setting": "CXCR2", "result": "* (refers to percent inhibition from 10-36%)"},
      {"measurement": "NFkB inh.", "setting": "NFκB; [5]", "result": "* (refers to percent inhibition from 6% to 64%)"}
    ]},
    {"smiles": "CCCOC(=O)C1C(C(=O)OCC[Si](C)(C)C)C2C[C@@H](Nc3ccccc3)[C@H]1c1cc(O)ccc12", "note": "(stereo partly drawn) [Example 115]", "values": [
      {"measurement": "CXCR2 2 inh.", "setting": "CXCR2", "result": "* (refers to percent inhibition from 10-36%)"},
      {"measurement": "CXCR1 inh.", "setting": "CXCR1", "result": "* (refers to percent inhibition from 10-36%)"},
      {"measurement": "NFkB inh.", "setting": "NFκB; [5]", "result": "* (refers to percent inhibition from 6% to 64%)"}
    ]},
    {"smiles": "CCCOC(=O)C1C(C(=O)OCC[Si](C)(C)C)C2C/C(=N\\Oc3ccccc3)[C@H]1c1cc(O)ccc12", "note": "(stereo partly drawn) [Example 116]", "values": [
      {"measurement": "CXCR2 2 inh.", "setting": "CXCR2", "result": "* (refers to percent inhibition from 10-36%)"},
      {"measurement": "IC50", "setting": "A549 cells; [3]", "result": "< 10", "unit": "µM"},
      {"measurement": "CXCR1 inh.", "setting": "CXCR1", "result": "* (refers to percent inhibition from 10-36%)"},
      {"measurement": "IC50", "setting": "NFκB; [4]", "result": "10 to 50", "unit": "µM"}
    ]}
  ]
}
